According to patent US7300503B2, “Dye mixture and ink containing the same, inkjet recording method and image forming method” (Fujifilm Corporation, priority 2004, dated 2007):

Assay: Color toner: light fastness of image
Format: physicochemical
Conditions: xenon light 85,000 lx, 5 days, dye remaining ratio
Experimental: A mixture of 3 parts by weight of each of the phthalocyanine compounds (Compounds 101, 102, 103 and 107) according to the invention and 100 parts by weight of a resin for toner (styrene-acrylate copolymer, trade name: Hymer TB-1000F, produced by Sanyo Chemical Industries, Ltd.) was pulverized in a ball mill and melt-blended by heating at 150° C. After cooling, the resulting solid was coarsely pulverized by a hammer mill and then finely pulverized by an air jet-type pulverizer. The particles were classified to select those having a particle size of 1 to 20 micrometer to prepare a toner. To 10 parts by weight of the toner, 900 parts by weight of carrier iron powder (trade name: FEV250/400, produced by Powdertech Co., Ltd.) was uniformly blended to prepare a developer. Each developer was prepared in the same manner as above except for using 3 parts by weight of dye or 6 parts by weight of pigment as a comparative coloring agent as shown in Table 7 below. Using the developer, duplicate was conducted by a dry type plain paper electrophotographic copying machine (trade name: NP-5000 produced by Canon Inc.).
For the evaluation, by the developer using the color toner containing the compound according to the invention, a reflection image and a transmission image were prepared on paper and OHP sheet according to the above-described image forming method, respectively. The evaluation was conducted in the following manner. A toner adhesion amount was in a range of 0.7±0.05 mg/cm^2 for the evaluation.
With the image formed, color tone and light fastness were evaluated. Regarding the color tone, the evaluation was visually conducted by a three-stage rating of best, good and poor. In Table 7, symbols ∘, Δ and × mean best color tone, good color tone and poor color tone, respectively. The light fastness was evaluated by measuring image density (Ci) just after the recording, irradiating the image with xenon light (85,000 1×) using Weatherometer (Atlas C. 165) for 5 days and then measuring again image density (Cf), and calculated a dye remaining ratio ([…]). The image density was measured by a reflection densitometer (X-Rite 310TR). In Table 7, symbols ∘, Δ and × mean the dye remaining ratio of 90% or more, the dye remaining ratio of less than 90% to 80% and the dye remaining ratio of less than 80%, respectively.

Compound	Light Fastness
Cc1ccc(Nc2ccc(Nc3ccc(C)cc3)c3c2C(=O)c2c(Nc4ccc(C)cc4)ccc(Nc4ccc(C)cc4)c2C3=O)cc1 [Comparative Dye 4]	Δ (the dye remaining ratio of less than 90% to 80%)
C.I. Solvent Blue 38	∘ (the dye remaining ratio of 90% or more)
C.I. Solvent Blue 70	∘ (the dye remaining ratio of 90% or more)
CNc1ccc(O)c2c1C(=O)c1c(O)ccc(NC)c1C2=O [Comparative Dye 3]	Δ (the dye remaining ratio of less than 90% to 80%)
